Laboratory results reported in ChEMBL document CHEMBL1142366, “Synthesis of pyrimidine and quinolone conjugates as a scaffold for dual inhibitors of HIV reverse transcriptase and integrase” (Bioorg Med Chem Lett, 2008).

Assays:
[1] = Inhibition of HIV integrase; parameters: species or system Human immunodeficiency virus
[2] = Inhibition of HIV reverse transcriptase; parameters: species or system Human immunodeficiency virus
[3] = test system: Human immunodeficiency virus; test: Antiviral activity against HIV by cell based assay; assay type: functional, organism-based; details: Human immunodeficiency virus 1

SMILES	IC50 [1] [nM]	IC50 [2] [nM]	EC50 [3] [nM]
CC(C)c1c(Cc2ccccc2)n(COCc2ccc3[nH]cc(C(=O)O)c(=O)c3c2)c(=O)[nH]c1=O	35000	190	220
CC(C)c1c(Cc2ccccc2)n(COCc2ccc3c(c2)c(=O)c(C(=O)O)cn3CCO)c(=O)[nH]c1=O	19000	3700	2200
CC(C)c1c(Cc2ccccc2)n(COCc2ccc3c(c2)c(=O)c(C(=O)O)cn3C)c(=O)[nH]c1=O	41000	2600	210
CCn1cc(C(=O)O)c(=O)c2cc(COCn3c(Cc4ccccc4)c(C(C)C)c(=O)[nH]c3=O)ccc21	51000	1100	1500
